# Measurements: publication PMC4693163, “Candida albicans Shed Msb2 and Host Mucins Affect the Candidacidal Activity of Salivary Hst 5” (Pathogens, 2015)
# T1: Histatin 5 (UniProt P15516)
# T1 sequence (peptide): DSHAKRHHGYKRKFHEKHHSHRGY
# Columns and labels:
# [1] = system: Candida albicans; experiment: Candidacidal assay (microdilution plate) of Hst 5 after pre-incubation with proteins; type: cell-based; settings: 37 °C, 1 h
# Experimental: (§1) Candidacidal assays—The susceptibility of C. albicans cells to Hst 5 was measured using microdilution plate assays in triplicate as previously described, with some modifications for experiments involving rSap6 and mucins. Briefly, Hst 5 was incubated with the required concentration of respective proteins for 1 h at 37 °C before performing the candidacidal assay. For heat inactivated control of rSaps, protein was heat inactivated at 120 °C for 10 min before using in the candidacidal assay.
# [2] = target: T2, rSap 6 (Candida albicans, UniProt Q5AC08); experiment: Proteolytic stability of Hst 5 with rSap 6 (10 KDa cut-off filtrate, LC/MS); type: in vitro ADME; settings: 2:1 Hst 5: Sap 6, 37 °C, 1 h, C18 column, peaks m/z 760, 608, 507
# T2 construct: made in house
# Experimental: To further address whether Sap 6 degrades Hst 5, we spun the 2:1 Hst 5: Sap 6 incubation mixture through a Centricon® 10 KDa molecular weight cut-off column that would allow Hst 5 and smaller peptides to pass through; and subjected the eluate to Liquid Chromatography/Mass Spectrometry. […] Analysis of these fragments to determine Sap6-specific cleavage sites within Hst 5 is ongoing.
# (§2) Proteolytic stability—For Hst 5 degradation analysis, Hst 5 was incubated with the required concentration of respective proteins for 1 h at 37 °C; and the reaction mixture was spun through a Centricon® 10 KDa cut-off column (Millipore UFC501024, Amicon Ultra-0.5 centrifugal filter unit with Ultracel-10 membrane), diluted in water with 2%TFA (trifluoroacetic acid) to 40 ug/mL of peptide, and analyzed by Liquid Chromatography/Mass Spectrometry utilizing a C18 column and an API3000 triple quadrupole mass spectrometer (Applied Biosystems, Foster City, CA,USA). The mass spectrum of Hst 5 gave a distribution of charge states with the most abundant being the M + 4 at 760 Da.
# [3] = target: T3, albumin (Bos taurus, UniProt P02769); experiment: Hst 5 degradation analysis with albumin (10 KDa cut-off filtrate, LC/MS); type: in vitro ADME; settings: 40 μM Hst 5 with 40 μM albumin, 37 °C, 1 h, C18 column
# T3 construct: purchased Sigma Aldrich A2153
# Experimental: (§3) We next investigated whether the effect of these proteins on Hst 5 activity is related to complexation and Hst 5 sequestration or as a result, instead, of degradation caused by potential contaminating proteases that may be present in these commercial proteins. For this, 40 μM Hst 5 was incubated for 1 h at 37 °C with either 50 or 500 μg/mL porcine mucin or 40 μM albumin, respectively, and spun through a Centricon® 10 KDa molecular weight cut-off column that would allow Hst 5 and smaller peptides to pass through followed by Liquid Chromatography/Mass Spectrometry analysis of the eluate.
# as §2
# [4] = system: porcine mucin; experiment: Hst 5 degradation analysis with porcine mucin (10 KDa cut-off filtrate, LC/MS); type: in vitro ADME; settings: 37 °C, 1 h
# Experimental: as §3, §2
# [5] = system: C. albicans Msb2 domain mutant cells; experiment: Candidacidal assay on HA-tagged Msb2 domain mutant cells; type: cell-based, Candida albicans; settings: Figure 6
# Description: C. albicans strains with HA-tagged Msb2 and its domain mutants were constructed previously. These mutants consisted of versions of Msb2 lacking each of the major functional domains: ED1/2Δ lacking residues 100–900 of the glycosylated extracellular region so that shed Msb2 is truncated with low glycosylation; ED4Δ cells lacking Msb2 residues 900–1250 within the cleavage domain of Msb2 resulting in constitutive shedding of Msb2 due to loss of cell tethering; and TM-CYTΔ cells lacking residues 1250–1409 that comprise the transmembrane and cytoplasmic signaling domain of Msb2 so that Msb2 is cleaved and shed in the absence of signaling. Briefly, Msb2 deletion derivative strains were constructed by a PCR-based approach using the URA-Blaster technique. PCR primers were designed to amplify the 3HA-URA3–3HA cassette in plasmid pCaMPY-3XHA [26], tailed with an additional 80 nucleotides of sequence flanking the open reading frame (ORF) of the region to be disrupted. PCR products were verified by gel electrophoresis. The purified PCR product (10 μg) was transformed into the Δmsb2/MSB2 strain with Frozen-EZ Yeast Transformation II Kit (Zymo Research, CA, USA). Uracil-deficient agar (YNB-URA) media was used for selection of URA positive colonies. PCR-based analysis of transformants was performed with primer pairs internal to the wild-type locus and the URA cassette. Homozygous transformants were reverted to the URA negative phenotype by selection on 5-fluororotic acid (5-FOA). Domain deletion knockouts were verified by immunoblot analysis.
# as §1
# [6] = target: T1, Histatin 5
# T2 sequence (Q5AC08 77-418): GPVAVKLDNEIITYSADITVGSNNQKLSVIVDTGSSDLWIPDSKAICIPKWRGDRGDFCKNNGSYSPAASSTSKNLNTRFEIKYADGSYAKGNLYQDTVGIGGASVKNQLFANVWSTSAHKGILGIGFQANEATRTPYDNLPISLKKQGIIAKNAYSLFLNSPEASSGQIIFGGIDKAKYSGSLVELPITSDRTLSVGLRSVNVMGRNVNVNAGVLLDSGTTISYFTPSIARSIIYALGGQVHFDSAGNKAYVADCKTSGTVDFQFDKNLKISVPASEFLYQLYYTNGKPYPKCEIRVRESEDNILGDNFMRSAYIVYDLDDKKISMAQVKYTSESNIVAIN
# T3 sequence (P02769 25-607): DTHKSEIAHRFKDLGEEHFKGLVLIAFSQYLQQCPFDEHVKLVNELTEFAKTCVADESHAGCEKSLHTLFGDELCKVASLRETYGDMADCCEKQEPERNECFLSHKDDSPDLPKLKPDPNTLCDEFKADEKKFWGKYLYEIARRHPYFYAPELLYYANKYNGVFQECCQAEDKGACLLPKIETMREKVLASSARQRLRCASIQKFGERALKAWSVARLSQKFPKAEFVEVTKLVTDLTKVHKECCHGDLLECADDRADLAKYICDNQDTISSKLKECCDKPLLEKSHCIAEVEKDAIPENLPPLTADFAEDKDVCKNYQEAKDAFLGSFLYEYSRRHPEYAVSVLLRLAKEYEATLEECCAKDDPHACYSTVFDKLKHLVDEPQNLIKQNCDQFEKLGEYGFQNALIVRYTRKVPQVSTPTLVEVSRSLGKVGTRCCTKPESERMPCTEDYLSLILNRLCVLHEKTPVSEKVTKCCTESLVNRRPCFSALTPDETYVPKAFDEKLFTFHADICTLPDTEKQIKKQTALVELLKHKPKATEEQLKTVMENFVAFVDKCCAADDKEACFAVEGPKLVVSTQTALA
# Sequence of albumin (from UniProt P02769 25-607) (natural protein) (P02769 25-607): as above
molecule,measurement,setting,value
"C[C@H](NC(=O)[C@H](Cc1cnc[nH]1)NC(=O)[C@H](CO)NC(=O)[C@@H](N)CC(=O)O)C(=O)N[C@@H](CCCCN)C(=O)N[C@@H](CCCNC(=N)N)C(=O)N[C@@H](Cc1cnc[nH]1)C(=O)N[C@@H](Cc1cnc[nH]1)C(=O)NCC(=O)N[C@@H](Cc1ccc(O)cc1)C(=O)N[C@@H](CCCCN)C(=O)N[C@@H](CCCNC(=N)N)C(=O)N[C@@H](CCCCN)C(=O)N[C@@H](Cc1ccccc1)C(=O)N[C@@H](Cc1cnc[nH]1)C(=O)N[C@@H](CCC(=O)O)C(=O)N[C@@H](CCCCN)C(=O)N[C@@H](Cc1cnc[nH]1)C(=O)N[C@@H](Cc1cnc[nH]1)C(=O)N[C@@H](CO)C(=O)N[C@@H](Cc1cnc[nH]1)C(=O)N[C@@H](CCCNC(=N)N)C(=O)NCC(=O)N[C@@H](Cc1ccc(O)cc1)C(=O)O [Hst 5, Histatin 5]",effect on Hst 5 candidacidal activity,"[1]; Hst 5 30 μM pre-incubated with heat inactivated rSap 6 (120 °C, 10 min)",did not affect Hst 5 activity
same,effect on Hst 5 candidacidal activity,[1]; Hst 5 30 μM with porcine gut mucin 5 μg/mL,no effect on Hst 5 activity
same,effect on Hst 5 candidacidal activity,[1]; Hst 5 30 μM with porcine gut mucin 50 μg/mL,no effect on Hst 5 activity
same,intact Hst 5 mass peaks after incubation with protease,[2],completely disappeared
same,intact Hst 5 mass peaks after incubation,[3],reduction in the peak intensity of all 3 m/z peaks for intact Hst 5 with no emergence of any significant lower m/z peaks
same,intact Hst 5 mass peaks after incubation,"[4]; 40 μM Hst 5 with 500 μg/mL porcine mucin, M + 4 (760) peak still observed at lower intensity",almost complete disappearance of m/z peaks at 507 and 608
same,intact Hst 5 mass peaks after incubation,"[4]; 40 μM Hst 5 with 50 or 500 μg/mL porcine mucin, C18 column",large dose-dependent decrease in the intensity of all three m/z peaks
same,Hst 5 killing compared with WT,"[5]; ED1/2Δ cells (release truncated Msb2 shed domain), p > 0.05",killing similar to WT Msb2-HA cells
same,Hst 5 killing compared with WT,"[5]; ED4Δ cells (constitutively shed Msb2), p > 0.05",killing similar to WT Msb2-HA cells
same,Hst 5 killing compared with WT,[5]; TM-CYTΔ cells (lack transmembrane and cytoplasmic domain of Msb2),reduced killing
same,Hst 5 killing,"[5]; cells lacking Msb2 (msb2Δ, no shedding), compared to other sMsb2 defective strains",killing was not significantly reduced
purified full-length shed domain of Msb2 (domain or fragment),candidacidal activity (percent killing of C. albicans) of 30 uM Hst 5 after 1 h at 37 C with equimolar sMsb2; 70% without added protein,[6],38 % killing
albumin (from UniProt P02769 25-607) (natural protein),candidacidal activity (percent killing of C. albicans) of 30 uM Hst 5 after 1 h at 37 C with equimolar albumin; 70% without added protein,[6],50 % killing
"fetuin (natural protein, glycosylated) IPLDPVAGYKEPACDDPDTEQAALAAVDYINKHLPRGYKHTLNQIDSVKVWPRRPTGEVYDIEIDTLETTCHVLDPTPLANCSVRQQTQHAVEGDCDIHVLKQDGQFSVLFTKCDSSPDSAEDVRKLCPDCPLLAPLNDSRVVHAVEVALATFNAESNGSYLQLVEISRAQFVPLPVSVSVEFAVAATDCIAKEVVDPTKCNLLAEKQYGFCKGSVIQKALGGEDVRVTCTLFQTQPVIPQPQPDGAEAEAPSAVPDAAGPTPSAAGPPVASVVVGPSVVAVPLPLHRAHYDLRHTFSGVASVESSSGEAFHVGKTPIVGQPSIPGGPVRLCPGRIRYFKI",candidacidal activity (percent killing of C. albicans) of 30 uM Hst 5 after 1 h at 37 C with equimolar fetuin; 70% without added protein,[6],50 % killing
